Measurements taken from the ASAP Discovery antiviral challenge data (2025).
Values after ≈ are worked out from the molar mass of the structure shown. Values joined by “and” are separate entries in the source; they are usually repeats but may differ in a detail not shown here. Identical values can stand only once.

How the values were obtained:
[1] = human; liver_microsomes
[2] = mouse; liver_microsomes
[3] = not given; remark: listed apart in the source
[4] = mdck_mdr1

## CC(C)[C@H](Nc1ncnc2[nH]c(-c3ccc4cncn4c3)cc12)c1ccc2c(c1)S(=O)(=O)CCC2 (racemic)
[1]
  microsomal CLint: 210 µL/min/mg
[2]
  microsomal CLint: 170 µL/min/mg
other
  solubility kinetic: 14 µM (≈ 6.81 µg/mL)
[3]
  logD: 4
[4]
  Papp: 0.56 ×10⁻⁶ cm/s

## CC(C)[C@H](Nc1ncnc2[nH]c(-c3ccc4nnn(C)c4c3)cc12)c1ccc2c(c1)S(=O)(=O)CCC2 (racemic)
[1]
  microsomal CLint: 752 µL/min/mg
[2]
  microsomal CLint: 219 µL/min/mg
other
  solubility kinetic: 6 µM (≈ 3.01 µg/mL)
[3]
  logD: 3.4
[4]
  Papp: 0.827 ×10⁻⁶ cm/s

## CC(C)[C@H](Nc1ncnc2[nH]c(-c3cncc(S(C)(=O)=O)c3)cc12)c1ccc2c(c1)S(=O)(=O)CCC2 (racemic)
[1]
  microsomal CLint: 635 µL/min/mg
[2]
  microsomal CLint: 272 µL/min/mg
other
  solubility kinetic: 31 µM (≈ 16.3 µg/mL)
[3]
  logD: 3.1
[4]
  Papp: 0.491 ×10⁻⁶ cm/s

## CC(C)[C@H](Nc1ncnc2[nH]c(-c3cnn(C)c3)cc12)c1ccc2c(c1)S(=O)(=O)NCC2 (racemic)
[1]
  microsomal CLint: 120 µL/min/mg
[2]
  microsomal CLint: 87 µL/min/mg
other
  solubility kinetic: 105 µM (≈ 47.4 µg/mL)
[3]
  logD: 3.2
[4]
  Papp: 1.58 ×10⁻⁶ cm/s

## CC(C)[C@H](Nc1ncnc2[nH]ccc12)c1ccc2c(c1)S(=O)(=O)CCO2 (racemic)
[1]
  microsomal CLint: 18 µL/min/mg
[2]
  microsomal CLint: 69 µL/min/mg
other
  solubility kinetic: 372 µM (≈ 139 µg/mL)
[3]
  logD: 2.6
[4]
  Papp: 4.4 ×10⁻⁶ cm/s

## CCNC(=O)c1cc2c(N[C@H](c3ccc4c(c3)S(=O)(=O)CCO4)C(C)C)ncnc2[nH]1 (racemic)
[1]
  microsomal CLint: 64 µL/min/mg
[2]
  microsomal CLint: 26 µL/min/mg
other
  solubility kinetic: 328 µM (≈ 145 µg/mL)
[3]
  logD: 2.9
[4]
  Papp: 0.471 ×10⁻⁶ cm/s

## CN(c1ccc2c(c1)CNC2)[C@H](C(=O)NCC(F)F)c1cc(Cl)cc(C2CC2)c1 (racemic)
[1]
  microsomal CLint: 17.1 µL/min/mg
[2]
  microsomal CLint: 10.6 µL/min/mg
other
  solubility kinetic: 172 µM (≈ 72.2 µg/mL)
[3]
  logD: 1.6
[4]
  Papp: 2.1 ×10⁻⁶ cm/s

## CNCc1cc(-c2cc3c(N[C@H](c4ccc5c(c4)S(=O)(=O)NCC5)C(C)C)ncnc3[nH]2)co1 (racemic)
[1]
  microsomal CLint: 46 µL/min/mg
[2]
  microsomal CLint: 42 µL/min/mg
other
  solubility kinetic: 372 µM (≈ 179 µg/mL)
[3]
  logD: 1.9
[4]
  Papp: 1.2 ×10⁻⁶ cm/s

## NCc1cccc(CNC(=O)[C@H](NC(=O)OCc2ccccc2)c2ccc(OCc3ccccc3)cc2)c1 (racemic)
[1]
  microsomal CLint: 3.89 µL/min/mg
[2]
  microsomal CLint: 2.73 µL/min/mg
other
  solubility kinetic: 78 µM (≈ 39.7 µg/mL)
[3]
  logD: 2.7
[4]
  Papp: 1.44 ×10⁻⁶ cm/s

## CC(C)(C)[C@H](Nc1ncnc2[nH]c(-c3cnn(CC(N)=O)c3)cc12)c1ccc2c(c1)OCCO2 (single isomer, unassigned)
[1]
  microsomal CLint: 153 µL/min/mg and 100 µL/min/mg
[2]
  microsomal CLint: 44 µL/min/mg and 39 µL/min/mg
other
  solubility kinetic: 89 µM and 104 µM
[3]
  logD: 3 and 3.1
[4]
  Papp: 0.364 ×10⁻⁶ cm/s and 1.01 ×10⁻⁶ cm/s

## CC(C)(C)[C@H](Nc1ncnc2[nH]c(-c3cnn(CC(N)=O)c3)cc12)c1ccc2c(n1)OCCO2 (single isomer, unassigned)
[1]
  microsomal CLint: 27 µL/min/mg and 42 µL/min/mg
[2]
  microsomal CLint: 10 µL/min/mg and 30 µL/min/mg
other
  solubility kinetic: 372 µM and 390 µM
[3]
  logD: 2.7 and 2.9
[4]
  Papp: 1.02 ×10⁻⁶ cm/s and 1.53 ×10⁻⁶ cm/s

## CC(C)[C@H](Nc1ncnc2[nH]c(-c3cnn(C)c3)cc12)c1ccc2c(c1)S(=O)(=O)CCC2 (single isomer, unassigned)
[1]
  microsomal CLint: 169 µL/min/mg and 405 µL/min/mg
[2]
  microsomal CLint: 255 µL/min/mg and 140 µL/min/mg
other
  solubility kinetic: 111 µM (≈ 50 µg/mL)
[3]
  logD: 2.9 and 3.2
[4]
  Papp: 1.18 ×10⁻⁶ cm/s and 1.5 ×10⁻⁶ cm/s

## CC(C)[C@H](Nc1ncnc2[nH]c(-c3cnn(C)c3C#N)cc12)c1ccc2c(c1)S(=O)(=O)CCC2 (single isomer, unassigned)
[1]
  microsomal CLint: 935 µL/min/mg and 516 µL/min/mg
[2]
  microsomal CLint: 311 µL/min/mg and 709 µL/min/mg
other
  solubility kinetic: 22 µM and 26 µM
[3]
  logD: 3.3 and 3.7
[4]
  Papp: 4.33 ×10⁻⁶ cm/s and 1.82 ×10⁻⁶ cm/s

## CC(C)[C@H](Nc1ncnc2[nH]c(-c3cnn(C)c3C#N)cc12)c1ccc2c(n1)NC(=O)CO2 (single isomer, unassigned)
[1]
  microsomal CLint: 137 µL/min/mg and 51 µL/min/mg
[2]
  microsomal CLint: 131 µL/min/mg and 189 µL/min/mg
other
  solubility kinetic: 28 µM (≈ 12.4 µg/mL)
[3]
  logD: 3.7
[4]
  Papp: 9.35 ×10⁻⁶ cm/s and 9.64 ×10⁻⁶ cm/s

## CC(C)[C@H](Nc1ncnc2[nH]c(-c3cnn(CC(N)=O)c3)cc12)c1ccc2c(c1)S(=O)(=O)CCC2 (single isomer, unassigned)
[1]
  microsomal CLint: 240 µL/min/mg and 115 µL/min/mg
[2]
  microsomal CLint: 39 µL/min/mg and 96 µL/min/mg
other
  solubility kinetic: 338 µM and 335 µM
[3]
  logD: 2.1 and 2
[4]
  Papp: 1.98 ×10⁻⁶ cm/s and 0.719 ×10⁻⁶ cm/s

## CC(C)[C@H](Nc1ncnc2[nH]c(-c3cnn(CC(N)=O)c3)cc12)c1ccc2c(n1)OCCO2 (single isomer, unassigned)
[1]
  microsomal CLint: 12 µL/min/mg and 18 µL/min/mg
[2]
  microsomal CLint: 5 µL/min/mg and 9 µL/min/mg
other
  solubility kinetic: 377 µM and 395 µM
[3]
  logD: 2.3 and 2.4
[4]
  Papp: 1.27 ×10⁻⁶ cm/s and 0.47 ×10⁻⁶ cm/s

## CNC(=O)Cn1cc(-c2cc3c(N[C@H](c4ccc5c(c4)S(=O)(=O)CCC5)C(C)C)ncnc3[nH]2)cn1 (single isomer, unassigned)
[1]
  microsomal CLint: 92 µL/min/mg and 237 µL/min/mg
[2]
  microsomal CLint: 111 µL/min/mg and 44 µL/min/mg
other
  solubility kinetic: 323 µM and 294 µM
[3]
  logD: 2.4 and 2.3
[4]
  Papp: 0.396 ×10⁻⁶ cm/s and 0.916 ×10⁻⁶ cm/s

## CNC(=O)c1cc2c(N[C@H](c3ccc4c(c3)NC(=O)CO4)C(C)C)ncnc2[nH]1 (single isomer, unassigned)
[1]
  microsomal CLint: 175 µL/min/mg
[2]
  microsomal CLint: 33 µL/min/mg
other
  solubility kinetic: 380 µM (≈ 150 µg/mL)
[3]
  logD: 2.9
[4]
  Papp: 1.21 ×10⁻⁶ cm/s

## COCCNC(=O)[C@H](Nc1ccc2c(c1)CNC2)c1cc(Cl)cc(C2CC2)c1 (single isomer, unassigned)
[1]
  microsomal CLint: 19.7 µL/min/mg
[2]
  microsomal CLint: 11.7 µL/min/mg
other
  solubility kinetic: 320 µM (≈ 128 µg/mL)
[3]
  logD: 1
[4]
  Papp: 1.4 ×10⁻⁶ cm/s

## COc1ccc([C@H](Cc2nnn[nH]2)NC(=O)c2ncnc3[nH]ccc23)cc1 (single isomer, unassigned)
[1]
  microsomal CLint: 2 µL/min/mg
[2]
  microsomal CLint: 7 µL/min/mg
other
  solubility kinetic: 367 µM (≈ 134 µg/mL)
[3]
  logD: -0.5
[4]
  Papp: 1.07 ×10⁻⁶ cm/s

## C[C@H](C(=O)O)[C@@H](NC(=O)c1ncnc2[nH]ccc12)c1ccc(Br)cc1 (single isomer, unassigned)
[1]
  microsomal CLint: 3 µL/min/mg
[2]
  microsomal CLint: 4 µL/min/mg
other
  solubility kinetic: 358 µM (≈ 144 µg/mL)
[3]
  logD: 0.6
[4]
  Papp: 0.682 ×10⁻⁶ cm/s

## Cc1nn(C)cc1-c1cc2c(N[C@H](c3ccc4c(c3)S(=O)(=O)CCC4)C(C)C)ncnc2[nH]1 (single isomer, unassigned)
[1]
  microsomal CLint: 273 µL/min/mg and 251 µL/min/mg
[2]
  microsomal CLint: 202 µL/min/mg and 390 µL/min/mg
other
  solubility kinetic: 65 µM and 63 µM
[3]
  logD: 3.1 and 3.4
[4]
  Papp: 4.36 ×10⁻⁶ cm/s and 3.69 ×10⁻⁶ cm/s

## Cn1ncc(-c2cc3c(N[C@H](c4ccc5c(n4)OCCO5)C(C)(C)C)ncnc3[nH]2)c1C#N (single isomer, unassigned)
[1]
  microsomal CLint: 283 µL/min/mg
[2]
  microsomal CLint: 226 µL/min/mg
other
  solubility kinetic: 24 µM (≈ 10.7 µg/mL)
[3]
  logD: 3.3
[4]
  Papp: 14 ×10⁻⁶ cm/s
